Source: US11780895B2, “Targeted DNA demethylation and methylation” (The Jackson Laboratory, priority 2016, dated 2023)

B1: PUFa-VP64: PUF(3-2) domain with NLS fused to VP64 (protein)
chain: MGILPPKKKRKVSRGRSRLLEDFRNNRYPNLQLREIAGHIMEFSQDQHGSRFIQLKLERATPAERQLVFNEILQAAYQLMVDVFGNYVIQKFFEFGSLEQKLALAERIRGHVLSLALQMYGSRVIEKALEFIPSDQQNEMVRELDGHVLKCVKDQNGNHVVQKCIECVQPQSLQFIIDAFKGQVFALSTHPYGCRVIQRILEHCLPDQTLPILEELHQHTEQLVQDQYGNYVIQHVLEHGRPEDKSKIVAEIRGNVLVLSQHKFASNVVEKCVTHASRTERAVLIDEVCTMNDGPHSALYTMMKDQYANYVVQKMIDVAEPGQRKIVMHKIRPHIATLRKYTYGKHILAKLEKYYMKNGVDLGGPAGSGRADALDDFDLDMLGSDALDDFDLDMLGSDALDDFDLDMLGSDALDDFDLDMLYID
B2: PUFa-TET1(CD): hTET1 catalytic domain (residues 1418 to 2136) fused to the C-terminus of PUFa (protein)
chain: MIDGGGGSDPKKKRKVDPKKKRKVDPKKKRKVGSTGSRNDGGGGSGGGGSGGGGSGRAGILPPKKKRKVSRGRSRLLEDFRNNRYPNLQLREIAGHIMEFSQDQHGSRFIQLKLERATPAERQLVFNEILQAAYQLMVDVFGNYVIQKFFEFGSLEQKLALAERIRGHVLSLALQMYGSRVIEKALEFIPSDQQNEMVRELDGHVLKCVKDQNGNHVVQKCIECVQPQSLQFIIDAFKGQVFALSTHPYGCRVIQRILEHCLPDQTLPILEELHQHTEQLVQDQYGNYVIQHVLEHGRPEDKSKIVAEIRGNVLVLSQHKFASNVVEKCVTHASRTERAVLIDEVCTMNDGPHSALYTMMKDQYANYVVQKMIDVAEPGQRKIVMHKIRPHIATLRKYTYGKHILAKLEKYYMKNGVDLGDPKKKRKVDPKKKRKVGGRGGGGSGGGGSGGGGSGPAELPTCSCLDRVIQKDKGPYYTHLGAGPSVAAVREIMENRYGQKGNAIRIEIVVYTGKEGKSSHGCPIAKWVLRRSSDEEKVLCLVRQRTGHHCPTAVMVVLIMVWDGIPLPMADRLYTELTENLKSYNGHPTDRRCTLNENRTCTCQGIDPETCGASFSFGCSWSMYFNGCKFGRSPSPRRFRIDPSSPLHEKNLEDNLQSLATRLAPIYKQYAPVAYQNQVEYENVARECRLGSKEGRPFSGVTACLDFCAHPHRDIHNMNNGSTVVCTLTREDNRSLGVIPQDEQLHVLPLYKLSDTDEFGSKEGMEAKIKSGAIEVLAPRRKKRTCFTQPVPRSGKKRAAMMTEVLAHKIRAVEKKPIPRIKRKNNSTTTNNSKPSSLPTLGSNTETVQPEVKSETEPHFILKSSDNTKTYSLMPSAPHPVKEASPGFSWSPKTASATPAPLKNDATASCGFSERSSTPHCTMPSGRLSGANAAAADGPGISQLGEVAPLPTLSAPVMEPLINSEPSTGVTEPLTPHQPNHQPSFLTSPQDLASSPMEEDEQHSEADEPPSDEPLSDDPLSPAEEKLPHIDEYWSDSEHIFLDANIGGVAIAPAHGSVLIECARRELHATTPVEHPNRNHPTRLSLVFYQHKNLNKPQHGFELNKIKFEAKEAKNKKMKASEQKDQAANEGPEQSSEVNELNQIPSHKALTLTHDNVVTVSPYALTHVAGPYNHWVID
B3: TET1(CD)-PUFa: hTET1 catalytic domain fused to the N-terminus of PUFa (protein)
chain: MGPAELPTCSCLDRVIQKDKGPYYTHLGAGPSVAAVREIMENRYGQKGNAIRIEIVVYTGKEGKSSHGCPIAKWVLRRSSDEEKVLCLVRQRTGHHCPTAVMVVLIMVWDGIPLPMADRLYTELTENLKSYNGHPTDRRCTLNENRTCTCQGIDPETCGASFSFGCSWSMYFNGCKFGRSPSPRRFRIDPSSPLHEKNLEDNLQSLATRLAPIYKQYAPVAYQNQVEYENVARECRLGSKEGRPFSGVTACLDFCAHPHRDIHNMNNGSTVVCTLTREDNRSLGVIPQDEQLHVLPLYKLSDTDEFGSKEGMEAKIKSGAIEVLAPRRKKRTCFTQPVPRSGKKRAAMMTEVLAHKIRAVEKKPIPRIKRKNNSTTTNNSKPSSLPTLGSNTETVQPEVKSETEPHFILKSSDNTKTYSLMPSAPHPVKEASPGFSWSPKTASATPAPLKNDATASCGFSERSSTPHCTMPSGRLSGANAAAADGPGISQLGEVAPLPTLSAPVMEPLINSEPSTGVTEPLTPHQPNHQPSFLTSPQDLASSPMEEDEQHSEADEPPSDEPLSDDPLSPAEEKLPHIDEYWSDSEHIFLDANIGGVAIAPAHGSVLIECARRELHATTPVEHPNRNHPTRLSLVFYQHKNLNKPQHGFELNKIKFEAKEAKNKKMKASEQKDQAANEGPEQSSEVNELNQIPSHKALTLTHDNVVTVSPYALTHVAGPYNHWVIDGGGGSDPKKKRKVDPKKKRKVDPKKKRKVGSTGSRNDGGGGSGGGGSGGGGSGRAGILPPKKKRKVSRGRSRLLEDFRNNRYPNLQLREIAGHIMEFSQDQHGSRFIQLKLERATPAERQLVFNEILQAAYQLMVDVFGNYVIQKFFEFGSLEQKLALAERIRGHVLSLALQMYGSRVIEKALEFIPSDQQNEMVRELDGHVLKCVKDQNGNHVVQKCIECVQPQSLQFIIDAFKGQVFALSTHPYGCRVIQRILEHCLPDQTLPILEELHQHTEQLVQDQYGNYVIQHVLEHGRPEDKSKIVAEIRGNVLVLSQHKFASNVVEKCVTHASRTERAVLIDEVCTMNDGPHSALYTMMKDQYANYVVQKMIDVAEPGQRKIVMHKIRPHIATLRKYTYGKHILAKLEKYYMKNGVDLGDPKKKRKVDPKKKRKVGGRGGGGSGGGGSGGGGSGPA

Experiments:
[1] = tested on: hMLH1; experiment: hMLH1 mRNA levels by TaqMan qRT-PCR in transfected HEK293T cells; type: cell-based, human; conditions: for activation of hMLH1 by dCas9 direct fusions (relative change in mRNA levels): same combination of sgRNAs as Casilio-ME; for hMLH1 expression, fold over background (change in mRNA levels): sgRNAs 3+7, 60 hours post-transfection, GAPDH normalised
Description: To test the system, HEK293T cells were transfected with Casilio-ME components including Ct or Nt-fusion TET1-effector and a combination of 3 or 2 sgRNAs. Relative levels of hMLH1 mRNA were determined in TaqMan assays by using RNA extracted from cells 60 hours post-transfection and GAPDH as endogenous control for normalization of qRT-PCR measurements.
Cell culture and transfection. HEK293T cells were cultivated in Dulbecco's modified Eagle's medium (DMEM)(Sigma) with 10% fetal bovine serum (FBS)(Lonza), 4% Glutamax (Gibco), 1% Sodium Pyruvate (Gibco) and penicillin-streptomycin (Gibco) in an incubator set to 37° C. and 5% CO2. When indicated cells were treated with 2.5 μM or 5 μM 5-Azacytidine (sigma) as indicated with a daily change of medium containing freshly diluted drug. Cells were seeded into 12-well plates at 150,000 cells per well the day before being transfected with 100 ng of dCas9 construct, 100 ng of modified sgRNA construct and 200 ng of PUF-fusion with Attractene transfection reagent according to manufacturer's instructions (Qiagen). In dCas9-direct fusion experiments, cells were transfected with 200 ng dCas9-fusion constructs and 200 ng of modified sgRNA constructs. Transfected cells were harvested 60 hours after transfection, or otherwise indicated, and cell pellets were used for extractions of RNA, genomic DNA and protein.
Quantitative RT-PCR analysis. Cells were harvested, washed with Dulbecco's phosphate-buffered saline (dPBS), centrifuged at 125×g for 5 min and then the flash-frozen pellets were stored at −80° C. RNA was extracted using RNeasy Plus Mini Kit according to the manufacturer's instructions (Qiagen). cDNA libraries were made using Applied Biosystems High Capacity RNA-to-cDNA kit with 200 ng to 1 μg of RNA. TaqMan gene expression assays (Applied Biosystems) were designed using GAPDH (Hs03929097, VIC) as endogenous control and hMLH1 (Hs00179866, FAM) as target. TaqMan Universal Master Mix II, with UNG (Applied Biosystems) was used for Quantitative PCR (qPCR), with 2 μl of diluted cDNA used for each reaction. Activation was analyzed with the Applied Biosystems ViiA7 instrument. Gene expression levels were calculated by “delta delta Ct” algorithm and normalized to control samples.

[2] = tested on: TetO::tdTomato transgene; experiment: TetO::tdTomato transgene activation measured by FACS; type: cell-based
Text: In particular, to test whether appending PBS to the 3′ end of sgRNA affects sgRNA function, a series of modified Tet-targeting (sgTetO) or non-targeting control (sgControl) sgRNA were generated, with 0 copy, 5 copies, 15 copies, 25 copies, and 47 copies of the 8-mer Pumilio homologue domain-binding sequence (PBS) for PUF (3-2) (also simply referred to as PUFa) [PBS32 or PBSa: SEQ ID NO:8 (5′-UGUAUgUA-3′)], PUF(6-2/7-2) (also simply referred to as PUFb) [PBS6272 or PBSb: SEQ ID NO:9 (5′-UugAUAUA-3′)].
Cells were transfected with dCas9-VP64 with the different sgRNA scaffolds, and were analyzed by fluorescent-activated cell sorting (FACS) two days after transfection (FIG. 1B).
Fusions of PUF(3-2)::VP64 and PUF(6-2/7-2)::VP64, which interacts with sgRNA (sgRNA-PBS32) with 5′-UGUAUgUA-3′ binding sites and sgRNA-PBS6272 with 5′-UugAUAUA-3′ binding sites, respectively, were created, and their activity to turn on tdTomato expression in conjunction with dCas9 was tested. In addition, two additional pairs, PUFw-VP64 recognizing PBSw (5′-UGUAUAUA-3′) and PUFc-VP64 recognizing PBSc (5′-UugAUgUA-3′), were also constructed to test their ability to activate the same TetO::tdTomato expression in conjunction with dCas9 (FIG. 1D).
Cell Culture for Experiments. HEK293T cells were cultivated in Dulbecco's modified Eagle's medium (DMEM)(Sigma) with 10% fetal bovine serum (FBS)(Lonza), 4% Glutamax (Gibco), 1% Sodium Pyruvate (Gibco) and penicillin-streptomycin (Gibco). Incubator conditions were 37° C. and 5% CO2. For activation experiments, cells were seeded into 12-well plates at 100,000 cells per well the day before being transfected with 200 ng of dCas9 construct, 100 ng of modified sgRNA and 100 ng of PUF-fusion with Attractene transfection reagent (Qiagen). After transfection, cells were grown for 48 hrs and harvested for either RNA extraction or fluorescent-activated cell sorting (FACS). […]
Fluorescent-Activated Cell Sorting. […] Samples were analyzed on a FACScalibur flow cytometer using CellQuest Pro software (BD Bioscience). […] were collected in each run.

| Molecule | activation of hMLH1 by dCas9 direct fusions (relative change in mRNA levels) ([1]; HEK293T) | hMLH1 expression, fold over background (change in mRNA levels) ([1]; HEK293T) [fold] | also measured |
| --- | --- | --- | --- |
| TET1(CD)-dCas9: direct fusion of TET1(CD) to the N-terminus of dCas9 | much weaker activation than its respective C-terminal fusion |  |  |
| dCas9-TET1(CD): direct fusion of TET1(CD) to the C-terminus of dCas9 | relatively weak activation | 19 | hMLH1 activation relative to dCas9-p65HSF1 ([1]; HEK293T, same sgRNA combination): at best twice the activity obtained with transcription activator dCas9 fusion; hMLH1 activation as percentage of the activation obtained using Casilio-ME ([1]; same sgRNAs combination, parallel experiment): about 14% |
| B1 |  |  | activation with only one PBSa ([2]; TetO-targeting sgRNA with 1 copy of PBSa): previously not observed; transgene activation with 15, 20, and 47 copies of PBS ([2]; with dCas9 and sgTetO-PBS, compared with 5-10 copies): slightly lower, albeit still substantial transgene activation |
| B2 |  | 135 | time course of activation of hMLH1 transcription ([1]; HEK293T, RNA guides 3 and 7, 3, 4, 5 and 6 days post transfection): maintained during the course of these transient transfections |
| B3 |  | ≤ 20 |  |
